Molecules are shown by their SMILES. In brackets after ≈: the same amount, converted by molar mass. Where two headings read alike, the source gives them in different places.

Results on three molecules are retold here after paper PMC8351079, “Molecular encapsulation of andrographolide in 2-hydroxypropyl-β-cyclodextrin cavity: synthesis, characterization, pharmacokinetic and in vitro antiviral activity analysis against SARS-CoV-2” (Heliyon, 2021).

The nature of series [1]: Pharmacokinetic analysis in rats (AND in plasma by HPLC). Set-up: species or system male Sprague Dawley rats. Particulars: in vivo, rat. Here is the method:
The pharmacokinetic analysis was carried out in male Sprague Dawley rats. The animals were kept in light controlled environment (Photoperiod~12 h, 23 ± 1 °C, 50 ± 5% humidity) with access to food and water ad libitum. […] In brief, 120 male rats were indiscriminately divided into 30 groups of 4 animals each similar to blood collection time points. AND and AND equivalent to 100 mg.kg^−1 in AND-2-HyP-β-CYD complex was administered orally by gavages.
The AND in plasma was monitored up to 48 h post oral administration of AND and AND-2-HyP-β-CYD complex. Blood samples were collected in both groups at 0.083, 0.25, 0.5, 1, 2, 4, 8, 16, 24 and 48 h. About 750 μl of blood sample was isolated from the retro-orbital vein into microcentrifuge tubes containing 100 μl of 10 % w/v sodium citrate as anticoagulant. The plasma was extracted from the blood by centrifugation at 5000 rpm for 20 min at 4 °C and stored at -40 °C until analyzed.
To extract the AND from plasma samples, plasma was typically mixed with methanol (1: 3 ratio) and vortexed for 20 min. Post mixing, the homogenate was centrifuged for 20 min at 5000 rpm to extract the proteins. The supernatant was filtered through 0.22 μm membrane filter and 10 μl was injected as specified earlier in to the HPLC system.
Plasma concentration data were analyzed and computed for one-compartmental pharmacokinetic parameters. The following pharmacokinetic parameters were assessed: ke (h), t1/2 (h), Cmax (μg.mL^−1), AUClast (h.μg.mL^−1), AUCinf (h.μg.mL^−1), MRT (h), CLTotal (L.h^−1), Vd (L) and F %.

The nature of series [2]: Dissolution test (USP apparatus, SIF pH 7.2). Particulars: SIF pH 7.2, after 2 h. In kind it is physicochemical. On the procedure:
Dissolution testing was carried out using USP dissolution rate test apparatus as per the standard protocol with HPLC method as specified earlier. In brief, 100 mg of AND or 100 mg of AND equivalent in AND-2-HyP-β-CYD complex powder was suspended in simulated intestinal fluid (SIF, pH 7.2, 900 mL) and paddle was rotated at 50 rpm. The temperature of SIF was kept at 37 ± 2 °C. At specified time intervals, 2 mL of the SIF was taken and replaced with identical volume.

The conditions of series [3]: cited from earlier work.
Series [4] in a line: Solubility analysis by saturated solution method. Particulars: aqueous phase, 37 °C. In kind it is physicochemical. On the procedure: The solubility of solid complex was measured by saturated solution method. […] Subsequently, suspension was filtered and 0.1 mL was diluted to 1 mL with water. […] All measurements were noticed in triplicate (n = 3).
For series [5] the following is noted: in vivo, cited from earlier work.
Series [6] can be described thus: Pharmacokinetic analysis in rats (AND in plasma by HPLC). Particulars: male, Sprague Dawley, in vivo, rat.
For series [7] the following is noted: room temperature; cited from earlier work.
Another series deals with SARS-CoV-2. Nature of the series: microbe, parasite or virus in culture. Particulars: for % Inhibition of virus replication post infection: concentration not given; for IC50: Severe acute respiratory syndrome coronavirus 2, Vero C1008, Vero E6 cells infected with SARS-CoV-2, MOI 0.01, qRT-PCR after 48 h. In kind it is cell-based. A general note: Real-time PCR tracks product formation cycle by cycle.

The nature of series [8]: Cytotoxicity testing, MTT cell proliferation assay. In kind it is cell-based. Particulars: African green monkey, Vero E6 cells, concentration not given, read-out: % Cell viability against Vero E6 cells. On the procedure: The cytotoxic effect of AND-2-HyP-β-CYD complex on the property of Vero E6 cells was evaluated by using MTT dye [3-(4,5-dimethylthiazol-2-yl)-2,5-diphenyltetrazolium bromide] assay technique. In brief, 1 × 10^4 Vero E6 cells were incubated for 24 h in serum DMEM (Dulbecco's Modified Eagle Medium) of about 200-μl in a 96 wells microtiter plate. Subsequently, Vero E6 cells were incubated for 24 h as well as 72 h with 10 μg.mL^−1 or 100-μg.mL^−1 of AND-2-HyP-β-CYD complex. On the other hand, remedisivir was taken as standard in identical concentration range. MTT dye stock solution (0.5 mg.mL^−1) was incorporated to each well of the microtiter plate post completion of incubation time. The plate was further incubated in 5% CO2 incubator at 37 °C for 4 h. The formazon crystals liberated after cell lysis, were suspended in 100 μL of DMSO (Dimethyl sulfoxide) in the last step. The absorbance was captured using reference wavelength of 630 nm in a ELISA reader at 570 nm.
(Tetrazolium assays rely on reduction of a dye to a coloured formazan, in cell work by metabolically active cells.)

Where [9] appears, read: male, Sprague Dawley, oral, 100 mg/kg (AND equivalent).

One may read the bioavailability as the share of a dose that reaches the circulation, judged against a reference dose that is usually intravenous. Usually AUC(0-inf) stands for the area under the concentration-time curve extrapolated to infinity. For orientation: AUC(0-t) means the area under the concentration-time curve up to a stated or last time point. As usually defined, the half-life is the time in which the quantity being followed falls by half. The term MRT denotes the average time that molecules of a dose stay in the body. What is called log P is a log measure of how a compound divides between an organic and an aqueous phase. Usually solubility stands for how much of the substance goes into solution per volume. High values mean a readily soluble substance, low ones a poorly soluble substance. As usually defined, the Tmax is the time at which the peak concentration occurs. A word on the Vd: it is the apparent volume that relates the amount in the body to the concentration in plasma or blood. Low values mean confinement near the circulation, high ones extensive tissue distribution. `C=C1CC[C@@H]2[C@](C)(CO)[C@H](O)CC[C@@]2(C)[C@@H]1C/C=C1/C(=O)OC[C@H]1O` [AND, Andrographolide]: the bioavailability in series [1] (male, Sprague Dawley, 100 mg.kg^−1, oral 100 mg/kg vs i.v. 10 mg/kg, read-out: F (%), bioavailability) is 15.9 ± 3.84%. Also, in series [1] (setting [9]), the AUC(0-inf) came to 1850 ± 306 µg·h/mL, the AUC(0-t) was determined as 1220 ± 143 µg·h/mL, the Cmax was 240 ± 75.4 µg/mL and the half-life was 5.92 ± 0.21 h. Besides, the MRT in [1] (po, 100 mg/kg) is recorded as 1.49 ± 0.0.085 h. Besides, the “% release” value in [2] was 27.89 ± 1.32%. The “log P” value in [3] was 2.632 ± 0.135. In series [4], this molecule displayed a solubility at 24 h of 6.39 ± 0.47 µg/mL (≈ 18.2 µM). In addition, in series [5] (iv), the “Half-life (t1/2)” value is on record as 1.86 ± 0.21 h. Moreover, in series [5] (po), the Absolute oral bioavailability is listed as 9.27 ± 1.69%, the Cmax was 0.73 ± 0.17 μM.L^−1, the “Half-life (t1/2)” value is recorded as 3.30 ± 0.35 h and the Tmax is reported as 0.42 ± 0.14 h. In series [6] (iv, 10 mg/kg), this molecule yielded an AUC(0-inf) of 891 ± 180 µg·h/mL, an AUC(0-t) of 801 ± 181 µg·h/mL, a mean residence time (MRT) of 1.11 ± 0.04 h and a Vd of 0.013 ± 0.003 L. This molecule also showed a half-life in series [6] (iv, 10 mg/kg) of 0.859 ± 0.031 h. Moreover, the clearance in [6] (iv, i.v., 10 mg/kg, read-out: CLTotal (converted)) was 0.183 mL/min. Besides, the Tmax in series [6] (oral, 100 mg.kg^−1) was 2 h.
For orientation: Aqueous solubility means the dissolved amount per volume that the medium holds. Regarding `CC(O)COC[C@H]1O[C@@H]2O[C@H]3[C@H](O)[C@@H](O)[C@@H](O[C@H]4[C@H](O)[C@@H](O)[C@@H](O[C@H]5[C@H](O)[C@@H](O)[C@@H](O[C@H]6[C@H](O)[C@@H](O)[C@@H](O[C@H]7[C@H](O)[C@@H](O)[C@@H](O[C@H]8[C@H](O)[C@@H](O)[C@@H](O[C@H]1[C@H](O)[C@H]2O)O[C@@H]8COCC(C)O)O[C@@H]7COCC(C)O)O[C@@H]6COCC(C)O)O[C@@H]5COCC(C)O)O[C@@H]4COCC(C)O)O[C@@H]3COCC(C)O` (stereo partly drawn) [2-HyP-β-CYD, 2-Hydroxypropyl-β-cyclodextrin], the Aqueous solubility in series [7] was over 500000 µg/mL.
As a reminder, the IC50 is the concentration at which inhibition is half-maximal. A word on the viability: it is a per cent measure of how many cells are alive, often set against a control. For `CCC(CC)COC(=O)[C@H](C)N[P@](=O)(OC[C@H]1O[C@@](C#N)(c2ccc3c(N)ncnn23)[C@H](O)[C@@H]1O)Oc1ccccc1` [Remdesivir], the “% Inhibition of virus replication post infection” value turned out to be 72.26% in the series with SARS-CoV-2 (24 h, E gene); 77.61% with SARS-CoV-2 (24 h, N gene); 99.64% in the series on SARS-CoV-2 (48 h, E gene); 99.76% in the series on SARS-CoV-2 (48 h, N gene). Also, the IC50 is 0.09 µg/mL (≈ 0.149 µM) in the series on SARS-CoV-2 (read-out: IC50 (E gene)) and 0.06 µg/mL (≈ 0.0996 µM) with SARS-CoV-2 (read-out: IC50 (N gene)). Also, the viability at 24 h in [8] (24 h) is 99.2%. Further, in series [8] (48 h), the viability at 48 h is 94.4%.
